Reference: US8674172B2, “Prostate cancer cell lines and their use in screening method” (Institut Gustave Roussy, priority 2009, dated 2014)
Entries after “also recorded” stand apart in the source; their conditions may differ.

Assays:
Format in all cases: cell-based, human
[1] = system: IGR-CaP1 cells; experiment: Cell cycle analysis by flow cytometry after propidium iodide staining; conditions: sensitive IGR-CaP1 cells, 100 nM docetaxel for 48 h
Procedure: (§1) Freshly plated IGR-CaP1 and IGR-CaP1-R100 cells were incubated for 48 h in complete medium containing or not 100 nM of docetaxel. Cell cycle distribution was studied on 70% cold ethanol-fixed cells, by propidium iodide staining (50 μg in PBS) and RNAse treatment (20 μg) followed by flow cytometry analysis (FACScalibur Becton-Dickinson).

[2] = system: IGR-CaP1-R100 cells; experiment: as above; conditions: IGR-CaP1-R100 cells resistant to 100 nM docetaxel, 100 nM docetaxel for 48 h
Procedure: as §1

[3] = system: IGR-CaP1 cells; experiment: Hormone-dependent growth assay (WST1 cell survival); conditions: 10^-9M DHT for 72 hours, phenol red free medium with charcoal-stripped serum
Procedure: (§2) The cell growth kinetic was determined by counting the viable cell number at regular intervals. Cells were seeded in triplicate at 4000 cells/well in 12 well plates in normal culture medium or in medium containing 10% of charcoal-stripped serum. Each day, cells were colored with trypan blue and counted. The doubling-time was calculated from regression equation of the curve. For the hormone-dependent growth assay, cells were seeded at 10 000 cells/well in 96 well plates. After 24 h, the culture medium was replaced with medium without phenol red containing 10% of charcoal-stripped serum and the DHT was added or not at the final concentration of 10^−9M. The medium was replaced each day. After 72 hours, cell survival was measured with the WST1 test according the manufacturer's procedures.

[4] = system: LNCaP cells; experiment: as above; conditions: 10^-9M DHT for 72 hours, phenol red free medium with charcoal-stripped serum
Procedure: as §2

[5] = system: PC3 cells; experiment: as above; conditions: 10^-9M DHT for 72 hours, phenol red free medium with charcoal-stripped serum
Procedure: as §2

[6] = system: IGR-CaP1-R100 cell line; experiment: Resistance of the cell line to a cytotoxic drug

Q: What does the source list for `CC(=O)O[C@@]12CO[C@@H]1C[C@H](O)[C@@]1(C)C(=O)[C@H](O)C3=C(C)[C@@H](OC(=O)[C@H](O)[C@@H](NC(=O)OC(C)(C)C)c4ccccc4)C[C@@](O)([C@@H](OC(=O)c4ccccc4)[C@H]21)C3(C)C` [docetaxel]?
A: Cell cycle distribution (block in G2-M phase) [1]: blocked in G2-M phase; Cell cycle distribution (block in G2-M phase) [2]: normally cycle; also recorded: not blocked in G2-M phase

Q: Which “Cellular growth in the presence of androgen” value (shortened to “Cellular growth”) [3] does the source give for `C[C@]12CCC(=O)C[C@@H]1CC[C@@H]1[C@@H]2CC[C@]2(C)[C@@H](O)CC[C@@H]12` [DHT] here?
A: did not affect the cellular growth

Q: And the “Cellular growth” value [4]?
A: increased

Q: What about the “Cellular growth” value [5] of the same compound?
A: did not affect the cellular growth

Q: With `N.N.[Cl][Pt][Cl]` [cisplatin] as the compound, how does the “Resistance of the cell line to the drug” value [6] read?
A: resistant
